Measurements as given in ChEMBL document CHEMBL1134851, “Apoptosis-inducing activity of synthetic intermediates of halichlorine” (Bioorg Med Chem Lett, 2002).

System: THP-1
Assay: Cytotoxicity towards the acute monocytic leukemia cell line (THP-1)
Assay type: functional, cell-based
Conditions: Homo sapiens

| SMILES | IC50 |
| --- | --- |
| CC(C)(C)[Si](OC[C@H]1CCC[C@]12CCC[C@@H]1CCCC(=O)N12)(c1ccccc1)c1ccccc1 | 71 µM |
| CC(=O)N1[C@@H](CCO)CCC[C@]12CCC[C@@H]2CO[Si](c1ccccc1)(c1ccccc1)C(C)(C)C | 25 µM |
| O=C1OC[C@H]2CCC[C@]23CCC[C@H](CCO)N13 | > 100 µM |
| COC(=O)C1=CC[C@H]2CCC[C@]3(CCC[C@@H]3CO[Si](c3ccccc3)(c3ccccc3)C(C)(C)C)N2C1=O | 5 µM |
| CC(C)(C)[Si](OC[C@H]1CCC[C@]12CCC[C@H](CCO)N2)(c1ccccc1)c1ccccc1 | 8.9 µM |
| CC(C)(C)[Si](OC[C@H]1CCC[C@]12CCC[C@@H]1CCOC(=O)N12)(c1ccccc1)c1ccccc1 | 32 µM |
| COC(=O)C1CC[C@H]2CCC[C@]3(CCC[C@@H]3CO[Si](c3ccccc3)(c3ccccc3)C(C)(C)C)N2C1=O (some centres not stated) | > 100 µM |
| CC(C)(C)[Si](OC[C@H]1CCC[C@]12CCC[C@@H]1CCC(CO)CN12)(c1ccccc1)c1ccccc1 (some centres not stated) | 32 µM |
| COC(=O)C1CC[C@H]2CCC[C@]3(CCC[C@@H]3CO)N2C1=O (some centres not stated) | > 100 µM |
| O=C1OCC[C@H]2CCC[C@]3(CCC[C@@H]3CO)N12 | > 100 µM |
| CC(C)(C)[Si](OC[C@H]1CCC[C@]12CCC[C@@H]1CCC(CO)C(=O)N12)(c1ccccc1)c1ccccc1 (some centres not stated) | 63 µM |
| CCO/C(O)=C/C1=N[C@]2(CCC1)CCC[C@@H]2CO[Si](c1ccccc1)(c1ccccc1)C(C)(C)C | > 100 µM |
| CCOC(=O)C[C@H]1CCC[C@]2(CCC[C@@H]2CO[Si](c2ccccc2)(c2ccccc2)C(C)(C)C)N1 | 40 µM |
| CCOC(=O)C[C@@H]1CCC[C@@]23CCC[C@@H]2CON13 | > 100 µM |
| CCO/C(O)=C/C1=N[C@]2(CCC1)CCC[C@@H]2CO | > 100 µM |
| O=C1CCC[C@H]2CCC[C@]3(CCC[C@@H]3CO)N12 | > 100 µM |
| N#CC1=CC[C@H]2CCC[C@]3(CCC[C@@H]3CO)N2C1=O | > 100 µM |
